Literature values as cited in US20230212091A1, “Compositions for Increasing Nitrogen Sources Life Span in Plant Growth Mediums and Methods of Making” (Soilgenic Technologies, LLC, priority 2017, published 2023).

Settings: at 20° C.

Structure (SMILES): N#CN=C(N)N [DCD, dicyandiamide]
- solubility in water: approximately 32 grams/liter
